In PubChem BioAssay (NCI):
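The compound was tested at five concentrations on cells cultured in 96-well plates, with a 48-hour exposure period. Abbreviation: GI50, concentration required for 50% inhibition of growth. TGI is the concentration that stops growth completely.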

What was measured:
Test in all cases: inhibition of tumour cell growth, NCI panel, 48 h
SK-MEL-28 melanoma = system: SK-MEL-28 melanoma
ACHN renal = system: ACHN renal
U251 CNS = system: U251 CNS
SF-539 CNS = system: SF-539 CNS
HOP-62 NSCLC = system: HOP-62 NSCLC
HL-60(TB) leukemia = system: HL-60(TB) leukemia
M14 melanoma = system: M14 melanoma
T-47D breast = system: T-47D breast
NCI/ADR-RES ovarian = system: NCI/ADR-RES ovarian
PC-3 prostate = system: PC-3 prostate
MDA-N = system: MDA-N

O=C1Oc2ccccc2C1C/C(=N\Nc1ccccc1)c1ccccc1O (stereo not drawn) gave a TGI (SK-MEL-28 melanoma) greater than 100 µM, a TGI (ACHN renal) greater than 100 µM and a TGI (U251 CNS) greater than 100 µM. It also gave a TGI (SF-539 CNS) greater than 100 µM, a TGI (HOP-62 NSCLC) greater than 100 µM and a TGI (HL-60(TB) leukemia) greater than 100 µM. It also gave a TGI (M14 melanoma) greater than 100 µM, a TGI (T-47D breast) of 81.8 µM and a TGI (NCI/ADR-RES ovarian) of 70.9 µM. For the same compound, the TGI (PC-3 prostate) was greater than 100 µM and the TGI (MDA-N) was greater than 100 µM.
In the case of COc1ccc(C(O)/C(=N/N)c2nc3ccc(Cl)cc3[nH]c2=O)cc1 (stereo not drawn), the TGI (SK-MEL-28 melanoma) is reported as greater than 100 µM, the TGI (ACHN renal) is reported as greater than 100 µM and the TGI (U251 CNS) is reported as greater than 100 µM. For the same compound, the TGI (SF-539 CNS) was greater than 100 µM, the TGI (HOP-62 NSCLC) was greater than 100 µM and the TGI (HL-60(TB) leukemia) was greater than 100 µM. The TGI (M14 melanoma) was greater than 100 µM, the TGI (T-47D breast) was greater than 100 µM and the TGI (NCI/ADR-RES ovarian) was greater than 100 µM. For the same compound, the TGI (PC-3 prostate) was greater than 100 µM and the TGI (MDA-N) was greater than 100 µM.
With COc1ccc(Nc2nc3ccccc3n3cccc23)cc1OC the TGI (SK-MEL-28 melanoma) was 28.9 µM, the TGI (ACHN renal) was 69.7 µM and the TGI (U251 CNS) was 35.9 µM. The TGI (SF-539 CNS) was 35 µM, the TGI (HOP-62 NSCLC) was 32.7 µM and the TGI (HL-60(TB) leukemia) was 9.51 µM. It also gave a TGI (M14 melanoma) of 30.7 µM, a TGI (T-47D breast) of 15.2 µM and a TGI (NCI/ADR-RES ovarian) of 56.1 µM. It also gave a TGI (PC-3 prostate) of 23.9 µM and a TGI (MDA-N) of 29.4 µM.
C[C@@H](CC(O)C(O)C(C)(C)O)C1CCC23CC12CCC1[C@@]2(C)CCC(O)C(C)(C)C2CC(OC2OC(CO)C(O)C(O)C2O)[C@]13C (stereo partly drawn) gave a TGI (SK-MEL-28 melanoma) greater than 10 µM, a TGI (ACHN renal) greater than 10 µM and a TGI (U251 CNS) greater than 10 µM. The TGI (SF-539 CNS) was greater than 10 µM, the TGI (HOP-62 NSCLC) was greater than 10 µM and the TGI (HL-60(TB) leukemia) was greater than 10 µM. It also gave a TGI (M14 melanoma) greater than 10 µM, a TGI (T-47D breast) greater than 10 µM and a TGI (NCI/ADR-RES ovarian) greater than 10 µM. For the same compound, the TGI (PC-3 prostate) was greater than 10 µM and the TGI (MDA-N) was greater than 10 µM.
With CS(=O)(=O)N1CC(CCl)c2ccc(NO)cc21 (stereo not drawn) the TGI (SK-MEL-28 melanoma) was 40.3 µM, the TGI (ACHN renal) was 21 µM and the TGI (U251 CNS) was 32.8 µM. For the same compound, the TGI (SF-539 CNS) was 26.1 µM, the TGI (HOP-62 NSCLC) was 47.4 µM and the TGI (HL-60(TB) leukemia) was 20 µM. The TGI (M14 melanoma) was 34.3 µM, the TGI (T-47D breast) was 60.1 µM and the TGI (NCI/ADR-RES ovarian) was 22.9 µM. For the same compound, the TGI (PC-3 prostate) was 39.5 µM and the TGI (MDA-N) was 32.4 µM.
Compound CNC(=O)c1n[nH]n(C2CCCCC2)c1=S has a TGI (SK-MEL-28 melanoma) greater than 100 µM, a TGI (ACHN renal) greater than 100 µM and a TGI (U251 CNS) greater than 100 µM. For the same compound, the TGI (SF-539 CNS) was greater than 100 µM, the TGI (HOP-62 NSCLC) was greater than 100 µM and the TGI (HL-60(TB) leukemia) was greater than 100 µM. It also gave a TGI (M14 melanoma) greater than 100 µM, a TGI (T-47D breast) greater than 100 µM and a TGI (NCI/ADR-RES ovarian) greater than 100 µM. It also gave a TGI (PC-3 prostate) greater than 100 µM and a TGI (MDA-N) greater than 100 µM.
Work on COc1nc(N=P(c2ccccc2)(c2ccccc2)c2ccccc2)cc(=O)n1C yielded a TGI (SK-MEL-28 melanoma) greater than 100 µM, a TGI (ACHN renal) greater than 100 µM and a TGI (U251 CNS) greater than 100 µM. The TGI (SF-539 CNS) was greater than 100 µM, the TGI (HOP-62 NSCLC) was greater than 100 µM and the TGI (HL-60(TB) leukemia) was greater than 100 µM. It also gave a TGI (M14 melanoma) greater than 100 µM, a TGI (T-47D breast) greater than 100 µM and a TGI (NCI/ADR-RES ovarian) greater than 100 µM. For the same compound, the TGI (PC-3 prostate) was greater than 100 µM and the TGI (MDA-N) was greater than 100 µM.
O=C1N/C(=N\N=C\c2ccccc2)C(c2ccccc2)O1 (stereo not drawn) was tested, and the TGI (SK-MEL-28 melanoma) was greater than 100 µM, the TGI (ACHN renal) was greater than 100 µM and the TGI (U251 CNS) was greater than 100 µM. It also gave a TGI (SF-539 CNS) greater than 100 µM, a TGI (HOP-62 NSCLC) greater than 100 µM and a TGI (HL-60(TB) leukemia) greater than 100 µM. It also gave a TGI (M14 melanoma) greater than 100 µM, a TGI (T-47D breast) greater than 100 µM and a TGI (NCI/ADR-RES ovarian) greater than 100 µM. It also gave a TGI (PC-3 prostate) greater than 100 µM and a TGI (MDA-N) greater than 100 µM.
CCN(CC)CCCNc1c2c(Cl)cc(Cl)cc2nc2nc(=O)[nH]c(C)c12 gave a TGI (SK-MEL-28 melanoma) of 95.2 µM, a TGI (ACHN renal) greater than 100 µM and a TGI (U251 CNS) of 33.9 µM. The TGI (SF-539 CNS) was greater than 100 µM, the TGI (HOP-62 NSCLC) was 64.7 µM and the TGI (HL-60(TB) leukemia) was greater than 100 µM. For the same compound, the TGI (M14 melanoma) was 61.9 µM, the TGI (T-47D breast) was greater than 100 µM and the TGI (NCI/ADR-RES ovarian) was greater than 100 µM. The TGI (PC-3 prostate) was greater than 100 µM and the TGI (MDA-N) was 37.7 µM.
For NS(=O)(=O)c1ccc(NC(=O)N/N=C/c2ccccc2O)cc1, the TGI (SK-MEL-28 melanoma) was greater than 100 µM, the TGI (ACHN renal) was greater than 100 µM and the TGI (U251 CNS) was greater than 100 µM. It also gave a TGI (SF-539 CNS) greater than 100 µM, a TGI (HOP-62 NSCLC) greater than 100 µM and a TGI (HL-60(TB) leukemia) greater than 100 µM. The TGI (M14 melanoma) was greater than 100 µM, the TGI (T-47D breast) was greater than 100 µM and the TGI (NCI/ADR-RES ovarian) was greater than 100 µM. The TGI (PC-3 prostate) was greater than 100 µM and the TGI (MDA-N) was 70.2 µM.
Work on COC1(CC[C@@H](C)COC2OC(CO)C(O)C(O)C2O)O[C@H]2C[C@H]3[C@@H]4CC=C5C[C@@H](OC6OC(CO)C(OC7OC(C)C(O)C(O)C7O)C(O)C6OC6OC(C)C(O)C(O)C6O)CC[C@]5(C)[C@H]4CC[C@]3(C)[C@H]2[C@@H]1C (stereo partly drawn) yielded a GI50 (SK-MEL-28 melanoma) of 2.26 µM, a TGI (SK-MEL-28 melanoma) of 5.53 µM and a GI50 (ACHN renal) of 6.24 µM. The TGI (ACHN renal) was 13.9 µM, the GI50 (U251 CNS) was 1.61 µM and the TGI (U251 CNS) was 4.31 µM. The GI50 (SF-539 CNS) was 1.22 µM, the TGI (SF-539 CNS) was 2.86 µM and the TGI (HOP-62 NSCLC) was 4.04 µM. For the same compound, the GI50 (HL-60(TB) leukemia) was 3.47 µM, the TGI (HL-60(TB) leukemia) was 13.4 µM and the GI50 (M14 melanoma) was 1.58 µM. The TGI (M14 melanoma) was 8.42 µM, the GI50 (T-47D breast) was 4.08 µM and the TGI (T-47D breast) was 10.9 µM. For the same compound, the GI50 (NCI/ADR-RES ovarian) was 2.59 µM, the TGI (NCI/ADR-RES ovarian) was 6.19 µM and the TGI (PC-3 prostate) was 9.58 µM. It also gave a TGI (MDA-N) of 7.43 µM.
Clc1ccc(Cl)c(N=Nc2cc3c4c(c2)CCN4CCC3)c1 gave a TGI (SK-MEL-28 melanoma) greater than 10 µM, a TGI (ACHN renal) greater than 10 µM and a TGI (U251 CNS) greater than 10 µM. The TGI (SF-539 CNS) was greater than 10 µM, the TGI (HOP-62 NSCLC) was greater than 10 µM and the TGI (HL-60(TB) leukemia) was greater than 10 µM. The TGI (M14 melanoma) was greater than 10 µM, the TGI (T-47D breast) was greater than 10 µM and the TGI (NCI/ADR-RES ovarian) was greater than 10 µM. For the same compound, the TGI (PC-3 prostate) was greater than 10 µM and the TGI (MDA-N) was greater than 10 µM.
Work on O=C1CN(c2ccccc2)Cc2nc(Cl)ccc2N1 yielded a TGI (SK-MEL-28 melanoma) greater than 100 µM, a TGI (ACHN renal) greater than 100 µM and a TGI (U251 CNS) greater than 100 µM. The TGI (SF-539 CNS) was greater than 100 µM, the TGI (HOP-62 NSCLC) was greater than 100 µM and the TGI (HL-60(TB) leukemia) was greater than 100 µM. It also gave a TGI (M14 melanoma) greater than 100 µM, a TGI (T-47D breast) greater than 100 µM and a TGI (NCI/ADR-RES ovarian) greater than 100 µM. For the same compound, the TGI (PC-3 prostate) was greater than 100 µM and the TGI (MDA-N) was greater than 100 µM.
CCCCOCCOCCOC1=CC(=O)c2c(O)ccc(O)c2C1=O was tested, and the TGI (SK-MEL-28 melanoma) was 2.95 µM, the TGI (ACHN renal) was 3.2 µM and the TGI (U251 CNS) was 3.29 µM. For the same compound, the TGI (SF-539 CNS) was 3.46 µM, the TGI (HOP-62 NSCLC) was 3.22 µM and the TGI (HL-60(TB) leukemia) was 6 µM. The TGI (M14 melanoma) was 2.85 µM, the TGI (T-47D breast) was 6.16 µM and the TGI (NCI/ADR-RES ovarian) was 5.14 µM. The TGI (PC-3 prostate) was 7.53 µM and the TGI (MDA-N) was 0.329 µM.
CC(=O)CCCCn1c(=O)c2c(nc(Br)n2C)n(C)c1=O showed a TGI (SK-MEL-28 melanoma) greater than 100 µM, a TGI (ACHN renal) greater than 100 µM and a TGI (U251 CNS) greater than 100 µM. The TGI (SF-539 CNS) was greater than 100 µM, the TGI (HOP-62 NSCLC) was greater than 100 µM and the TGI (HL-60(TB) leukemia) was greater than 100 µM. It also gave a TGI (M14 melanoma) greater than 100 µM, a TGI (T-47D breast) greater than 100 µM and a TGI (NCI/ADR-RES ovarian) greater than 100 µM. The TGI (PC-3 prostate) was greater than 100 µM and the TGI (MDA-N) was greater than 100 µM.
